What all share (assay type): in vivo
One data set concerns Sinapis arvensis. Kind of data set: Pre-emergence herbicidal action. Conditions: 320 g of active ingredient or less per hectare, greenhouse, visual scoring after 3 to 4 weeks vs untreated controls. The text has this:
(§1) Seeds of mono- and dicotyledonous weed plants are placed in sandy loam in cardboard pots and covered with soil. The compounds according to the invention, formulated as wettable powders or emulsifiable concentrates, are then applied, in the form of an aqueous suspension or emulsion, at a dosage of 320 g of active ingredient or less per hectare (converted), onto the surface of the covering earth, at an application rate of 600 to 800 l of water per ha (converted). Following treatment, the pots are placed in the greenhouse and maintained under good growth conditions for the weed plants. The visual scoring of the plant damage or emergence damage is made when the test plants have emerged, after an experimental period of 3 to 4 weeks, in comparison to untreated controls.

Another data set deals with Amaranthus retroflexus. Kind of data set: Pre-emergence herbicidal action. To be noted: 320 g of active ingredient or less per hectare, greenhouse, visual scoring after 3 to 4 weeks vs untreated controls.
Excerpt: as §1

In another data set the test system is Setaria viridis. Kind of data set: Pre-emergence herbicidal action. Conditions: 320 g of active ingredient or less per hectare, greenhouse, visual scoring after 3 to 4 weeks vs untreated controls.
Excerpt: as §1

The test system of another data set is wheat plants. Kind of data set: Crop plant tolerance. Conditions: application rate of 320 g, plants with two to three true leaves, greenhouse, visual scoring four to five weeks after application.
Excerpt: as §1
(§2) In further greenhouse experiments, seeds of crop plants and of monocotyledonous and dicotyledonous weed plants are placed in sandy loam, covered with soil and placed in the greenhouse until the plants have developed two to three true leaves. Then they are treated with the compounds of the formula (I) according to the invention, and compared with those disclosed in the prior art, as described above in section 1. Four to five weeks after the application and after having been left to stand in the greenhouse, visual scoring is performed. In this test, for example, the compounds of Nos: 1.44, 2.39 and 3.44, at an application rate of 320 g, lead to no damage to maize and wheat plants.

A further data set has as its system maize plants. Kind of data set: Crop plant tolerance. To be noted: application rate of 320 g, plants with two to three true leaves, greenhouse, visual scoring four to five weeks after application.
Excerpt: as §1, §2

Each structure is given as a SMILES string.

Take `CCS(=O)(=O)c1ccc(-c2oncc2C(=O)C2CC2)c(C)n1` [2.19]: in the data set on Sinapis arvensis, the “activity against Sinapis arvensis” value worked out at 100%. Further, in the data set with Amaranthus retroflexus, the “activity against Amaranthus retroflexus” value was determined as 100%. Moreover, the “activity against Setaria viridis” value with Setaria viridis amounted to 100%.
For `CCS(=O)(=O)c1ccc(C(=O)c2cnoc2C2CC2)c(C)n1` [1.19], the “activity against Sinapis arvensis” value with Sinapis arvensis is 100%. Further, the “activity against Amaranthus retroflexus” value in the data set with Amaranthus retroflexus came to 100%. In the data set with Setaria viridis, the “activity against Setaria viridis” value is 100%.
As for `CSc1ccc(-c2oncc2C(=O)C2CC2)c(C)n1` [2.14], the “activity against Sinapis arvensis” value with Sinapis arvensis is reported as 100%. Also, the “activity against Amaranthus retroflexus” value with Amaranthus retroflexus was determined as 100%. Further, the “activity against Setaria viridis” value with Setaria viridis is listed as 100%.
Turning to `Cc1nc(C(F)(F)F)ccc1C(=O)C(C#N)C(=O)C1CC1` (stereo not shown) [3.44], in the data set with wheat plants, the “damage to wheat plants” value is “no damage”. Further, the “damage to maize plants” value with maize plants is reported as “no damage”. Also, in the data set on Sinapis arvensis, the “activity against Sinapis arvensis” value is on record as 100%. Besides, in the data set on Amaranthus retroflexus, the “activity against Amaranthus retroflexus” value was found to be 100%. In addition, the “activity against Setaria viridis” value in the data set with Setaria viridis was 100%.
As to `Cc1nc(Cl)ccc1-c1oncc1C(=O)C1CC1` [2.39], in the data set with wheat plants, the “damage to wheat plants” value is reported as “no damage”. Besides, in the data set with maize plants, the “damage to maize plants” value is recorded as “no damage”. In addition, in the data set on Sinapis arvensis, the “activity against Sinapis arvensis” value is 100%. Besides, in the data set with Amaranthus retroflexus, the “activity against Amaranthus retroflexus” value was found to be 100%. In the data set on Setaria viridis, the “activity against Setaria viridis” value came to 100%.
In the case of `Cc1nc(Cl)ccc1C(=O)c1cnoc1C1CC1` [1.39], the “activity against Sinapis arvensis” value in the data set on Sinapis arvensis is listed as 100%. For the same compound, the “activity against Amaranthus retroflexus” value with Amaranthus retroflexus came out at 100%. In the data set with Setaria viridis, the “activity against Setaria viridis” value is listed as 100%.

The values are drawn from patent US20050282707A1, “Pyridinylisoxazoles and their use as herbicides” (Bayer CropScience GmbH, priority 2004, published 2005).
